# Assay results from ChEMBL document CHEMBL5729393, “Inhibitors of blood coagulation factor XIII” (2022).
# Where a SMILES comes first, the peptide text is derived from it. [ ]: non-standard residue; d: D form. The star is where a group is joined. ξ: configuration not given here. Nle(5E-ene,6-CO2Et) = CCOC(=O)/C=C/CC[C@H](N)C(=O)O; Oic(3aξ,7aξ) = O=C(O)[C@@H]1CC2CCCCC2N1; Cbz = O=C(OCc1ccccc1)*
# Molecular target: T1, Coagulation factor XIII A chain (Homo sapiens, UniProt P00488)
# T1 sequence (P00488 whole entry): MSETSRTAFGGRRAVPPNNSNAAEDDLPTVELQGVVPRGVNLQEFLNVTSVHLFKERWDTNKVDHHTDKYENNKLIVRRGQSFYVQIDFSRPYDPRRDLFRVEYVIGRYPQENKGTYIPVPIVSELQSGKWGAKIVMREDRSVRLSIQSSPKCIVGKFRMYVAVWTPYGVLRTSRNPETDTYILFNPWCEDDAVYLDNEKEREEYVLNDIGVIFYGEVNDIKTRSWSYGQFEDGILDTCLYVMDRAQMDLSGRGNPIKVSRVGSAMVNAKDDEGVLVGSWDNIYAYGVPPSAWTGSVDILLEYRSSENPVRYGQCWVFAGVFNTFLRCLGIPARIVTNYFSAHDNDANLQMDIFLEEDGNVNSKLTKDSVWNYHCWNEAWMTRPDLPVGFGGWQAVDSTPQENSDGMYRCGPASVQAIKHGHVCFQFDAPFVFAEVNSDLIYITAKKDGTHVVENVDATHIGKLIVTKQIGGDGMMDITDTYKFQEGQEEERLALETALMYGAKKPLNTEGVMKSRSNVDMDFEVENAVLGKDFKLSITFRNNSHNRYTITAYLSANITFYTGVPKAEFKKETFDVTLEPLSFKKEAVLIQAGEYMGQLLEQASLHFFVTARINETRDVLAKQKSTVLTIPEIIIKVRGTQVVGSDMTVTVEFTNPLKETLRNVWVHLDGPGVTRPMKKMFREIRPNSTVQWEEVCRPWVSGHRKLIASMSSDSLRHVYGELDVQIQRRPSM
# Assay: All measurements were performed in triplicate.
compound,measurement,value
"CCOC(=O)/C=C/CC[C@H](NC(=O)OCc1ccccc1)C(=O)N[C@H](C(=O)N1C2CCCCC2C[C@H]1C(=O)N[C@@H](CC(C)C)C(N)=O)C(C)C (stereo partly drawn) (Cbz-[Nle(5E-ene,6-CO2Et)]V[Oic(3aξ,7aξ)]L-NH2)",IC50,> 10 µM
